The values that follow come from patent publication US10793526B2, “Hydantoin derivative compounds, methods of use and methods of treatment” (University of South Florida, priority 2016, dated 2020).

Data set [1] has as its system MRSA-induced lung inflammation. Description: Rat model of MRSA-induced pneumonia, pathological analysis (H&E). It is filed as in vivo. The note with it: 10 mg/kg i.v. As for the experimental part: The rat model of MRSA-induced pneumonia.^4, 5
The protocol of animal studies was approved by the institutional committee for animal care of Nanjing University, and the experiments were conducted following the regulation of the National Ministry of Health of China. In Brief, male Wistar rats (6-8 weeks, ˜200 g in average weight) were subjected to fast for 12 h. Next, rats were anesthetized by intraperitoneal administration of 0.35 g/kg of chloral hydrate. To induce MRSA pneumonia, the trachea of rats were exposed, to which 100 μL PBS containing 2×10^6 CFU/mL MRSA in PBS was slowly injected. The rats were retained upright for 1 min, and the cut was sealed. The MRSA infection was allowed to develop for 24 h.
The hydantoin compound 22 or vancomycin were used as antibiotics in the study. In brief, a dose of 10 mg/kg of the drug was injected to the tested rats intravenously. On the day of 3 and 5, rats were sacrificed, and lung sections were stained with hematoxylin and eosin (H&E), and their morphology was investigated under a light microscope at 100× magnification. The existence (indicated by the infiltration of neutrophils) and the extent of possible inflammatory response (indicated by the integrity of the alveolar structure and endothelium cilium) were recorded from at least five randomly picked sections by an experienced physician.

The test system of data set [2] is methicillin-resistant S. aureus (MRSA, ATCC 33591). Nature of the data set: Minimum inhibitory concentration (MIC) assay, MRSA. To be noted: for MIC: Staphylococcus aureus. It is filed as cell-based, Staphylococcus aureus. As for the experimental part: (§1) Minimum inhibitory concentrations (MICs) assay.^2
(§2) All compounds were tested against six different bacteria strains: methicillin-resistant S. aureus (MRSA, ATCC 33591), E. coli (ATCC 25922), methicillin-resistant S. epidermidis (MRSE, RP62A), K. pneumoniae (ATCC 13383), vancomycin-resistant Enterococcus faecalis (VREF, ATCC 700802), P. aeruginosa (ATCC 27853). One colony of each bacteria was inoculated in 4 mL TSB buffer at 37° C. overnight, which was then diluted 100 times, and the bacteria were allowed to grow to the mid-logarithmic phase. 50 μL hydantoin compounds in 2-fold serial dilution of TSB were added in the 96-well plate, then 50 μL diluted bacterial in TSB medium (1×10^6 CFU/mL) was added to each well. After 16 h of incubation at 37° C., the absorption at 600 nm wavelength on a Biotek Synergy HT microtiter plate reader was recorded. Minimum inhibitory concentrations were determined as the lowest concentrations that inhibited bacteria growth completely.

In data set [3] the test system is methicillin-resistant S. epidermidis (MRSE, RP62A). Nature of the data set: Minimum inhibitory concentration (MIC) assay, MRSE. It is filed as cell-based, Staphylococcus epidermidis. The note with it: Gram positive, 16 h incubation; for MIC: Staphylococcus epidermidis, MRSE, read-out: MIC (μg/mL) MRSE. As for the experimental part: as §1, §2
Data set [4] deals with vancomycin-resistant Enterococcus faecalis (VREF, ATCC 700802). Description: Minimum inhibitory concentration (MIC) assay, VREF. The note with it: 16 h incubation; for MIC: Enterococcus faecalis, ATCC700802, Gram positive, read-out: MIC (μg/mL) VREF; for MIC (μg/mL) VREF: Gram positive. In kind it is cell-based. As for the experimental part:
as §1, §2

A further data set has as its system E. coli (ATCC 25922). Description: Minimum inhibitory concentration (MIC) assay, E. coli. In kind it is cell-based, Escherichia coli. To be noted: 16 h incubation; for MIC: Escherichia coli, ATCC25922, Gram negative, read-out: MIC (μg/mL) E. coli; for MIC (μg/mL) E. coli: Gram negative. As for the experimental part: as §1, §2
Data set [5] concerns P. aeruginosa (ATCC 27853). Nature of the data set: Minimum inhibitory concentration (MIC) assay, P. aeruginosa. In kind it is cell-based, Pseudomonas aeruginosa. To be noted: for MIC: Pseudomonas aeruginosa, ATCC27853, read-out: MIC (μg/mL) P.A.; for MIC / MIC (μg/mL) P.A.: Gram negative, ATCC 27853, 16 h incubation. Here is the method:
as §1, §2

Data set [6] deals with K. pneumoniae (ATCC 13383). Nature of the data set: Minimum inhibitory concentration (MIC) assay, K. pneumoniae. It is filed as cell-based, Klebsiella pneumoniae. The note with it: 16 h incubation; for MIC: Klebsiella pneumoniae, ATCC13383, Gram negative, read-out: MIC (μg/mL) K.P.; for MIC (μg/mL) K.P.: Gram negative. Here is the method: as §1, §2
Data set [7] relates to red blood cells (RBCs) of mice. Nature of the data set: Hemolytic assay. It is filed as cell-based. As for the experimental part: Fresh red blood cells (RBCs) of mice were washed with 1×PBS buffer and centrifuged 10 min at 3500 rpm for 3 times until the supernatant was clear, then RBCs were diluted into 5% v/v suspension in 1×PBS. 50 μL compounds in PBS were 2-fold serially diluted in a 96-well plate, and incubated with 50 μL RBCs suspension for 1 h at 37° C. The mixture was then centrifuged for 10 min at 3500 rpm. Subsequently, 30 μL of the supernatant was added to 100 μL PBS, then the absorbance of mixture was read on a Biotek Synergy HT plate reader at 540 nm. The hemolytic activity was calculated by the formula % hemolysis=(Abssample−AbsPBS)/(AbsTriton−AbsPBS)×100%. 1% Triton X-100 were used as the positive control and 1×PBS buffer was used as the negative control.

Data set [8] relates to panel of Gram-positive and Gram-negative bacteria. Nature of the data set: Antimicrobial activity against the whole panel of bacteria. In kind it is cell-based. To be noted: for antibacterial activity of compounds with HPLC RT values less than 26 min: statement relating activity to retention time; for antimicrobial activity across the tested bacterial strains: all tested strains. Here is the method: as §1, §2

The mark [9] stands for this setting: Gram positive, ATCC 33591, 16 h incubation, read-out: MIC (μg/mL) MRSA.
[10] abbreviates: hemolytic activity, mouse RBCs, 1 h at 37° C.
The mark [11] stands for this setting: Gram positive, ATCC 33591, 16 h incubation.

Where two headings read alike, the source gives them in different places.

As for `CN[C@H](CC(C)C)C(=O)N[C@H]1C(=O)N[C@@H](CC(N)=O)C(=O)N[C@H]2C(=O)N[C@H]3C(=O)N[C@H](C(=O)N[C@H](C(=O)O)c4cc(O)cc(O)c4-c4cc3ccc4O)[C@H](O)c3ccc(c(Cl)c3)Oc3cc2cc(c3O[C@@H]2O[C@H](CO)[C@@H](O)[C@H](O)[C@H]2O[C@H]2C[C@](C)(N)[C@H](O)[C@H](C)O2)Oc2ccc(cc2Cl)[C@H]1O` [vancomycin, reference compound], the “lung inflammation (H&E staining), day not given” value in data set [1] is “alleviated condition”.
Consider `CCCCCCCCCCCC(=O)N[C@@H](CCCCN)CN1CC(=O)N(C2CCCCC2)C1=O` [Compound 10, (S)—N-(6-amino-1-(3-cyclohexyl-2,4-dioxoimidazolidin-1-yl)hexan-2-yl)dodecanamide], for which the MIC in data set [2] (setting [9]) worked out at 6.25 µg/mL; in [3], 6.25 µg/mL; in data set [4], 12.5 µg/mL; in the data set on E. coli (ATCC 25922) it was 6.25 µg/mL; in [5], 12.5 µg/mL; in data set [6] it was 6.25 µg/mL. Also, the “HC50” value in data set [7] (setting [10]) worked out at 100 µg/mL.
In the case of `CCCCCCCCCCCC(=O)N[C@@H](CCCCN)CN1CC(=O)N(c2ccc(OC)cc2)C1=O` [Compound 18, (S)—N-(6-amino-1-(3-(4-methoxyphenyl)-2,4-dioxoimidazolidin-1-yl)hexan-2-yl)dodecan amide], in [2] (setting [11]), the “MIC (μg/mL) MRSA” value turned out to be 25 µg/mL. Moreover, the “MIC of MRSA” value in data set [2] (Table 2) was found to be 25 µg/mL. The “MIC (μg/mL) MRSE” value in [3] was found to be 25 µg/mL. The “MIC (μg/mL) VREF” value in data set [4] amounted to 25 µg/mL. Further, in the data set on E. coli (ATCC 25922), the “MIC (μg/mL) E. coli” value stood at 12.5 µg/mL. Besides, the “MIC (μg/mL) P.A.” value in data set [5] worked out at 12.5 µg/mL. The “MIC (μg/mL) K.P.” value in [6] is 12.5 µg/mL. Also, the “HC50” value in data set [7] came to 200 µg/mL. The “antibacterial activity of compounds with HPLC RT values less than 26 min” value (“antibacterial activity of compounds” below) in [8] is reported as “no apparent antibacterial activity”.
Turning to `CCCCCCCCCCCC(=O)N[C@@H](CCCCN)CN1CC(=O)N(CCCC)C1=O` [Compound 6, (S)—N-(6-amino-1-(3-butyl-2,4-dioxoimidazolidin-1-yl)hexan-2-yl)dodecanamide], the MIC in [2] (setting [9]) turned out to be 12.5 µg/mL; in data set [3] it was 25 µg/mL; in data set [4], 25 µg/mL; with E. coli (ATCC 25922), 6.25 µg/mL; in data set [5] it was 25 µg/mL; in [6] it was 12.5 µg/mL. Also, the “HC50” value in [7] (setting [10]) amounted to 80 µg/mL. Besides, the “antibacterial activity of compounds” value in [8] is given as “no apparent antibacterial activity”.
Turning to `CCCCCCCCCCCC(=O)N[C@@H](Cc1ccccc1)CN1CC(=O)N(c2cccc(Cl)c2)C1=O` [Compound 25, (S)—N-(1-(3-(3-chlorophenyl)-2,4-dioxoimidazolidin-1-yl)-3-phenylpropan-2-yl)dodecanamide], the MIC (in data set [2] (setting [9]); in data set [3]; in data set [4]; in the data set with E. coli (ATCC 25922); in [5]; in data set [6]) was > 50 µg/mL throughout. Also, in [8], the “antimicrobial activity across the tested bacterial strains” value was “fails to show any antimicrobial activity”. Also, in [8], the “antibacterial activity of compounds” value is “no apparent antibacterial activity”.
Consider `CCCCCCCCCCCCCCCC(=O)N[C@@H](CCCCN)CN1CC(=O)N(CC)C1=O` [Compound 4, (S)—N-(6-amino-1-(3-ethyl-2,4-dioxoimidazolidin-1-yl)hexan-2-yl)palmitamide], for which the MIC in data set [2] (setting [9]) is 3.12 µg/mL; in data set [3], 3.12 µg/mL; in data set [4], 3.12 µg/mL; with E. coli (ATCC 25922), 3.12 µg/mL; in data set [5], > 50 µg/mL; in [6], 12.5 µg/mL. Further, in data set [5] (under the tested condition), the “activity toward Pseudomonas aeruginosa” value is given as “abolishes its activity”. Also, in [8], the “antibacterial activity of compounds” value is reported as “no apparent antibacterial activity”.
With `CCCCCCCCCC(=O)N[C@@H](CCCCN)CN1CC(=O)N(c2cccc(Cl)c2)C1=O` [Compound 21, (S)—N-(6-amino-1-(3-(3-chlorophenyl)-2,4-dioxoimidazolidin-1-yl)hexan-2-yl)decanamide], the MIC was determined as 6.25 µg/mL in data set [2] (Table 2, read-out: MIC of MRSA); 6.25 µg/mL in data set [3]; 12.5 µg/mL in data set [4]; 6.25 µg/mL in the data set with E. coli (ATCC 25922); 6.25 µg/mL in data set [5]; 6.25 µg/mL in [6]. Besides, the 50% haemolytic concentration (HC50) in data set [7] (setting [10]) is 100 µg/mL.
`CCCCCCCCCCCCCC(=O)N[C@@H](CCCCN)CN1CC(=O)N(CC)C1=O` [Compound 3, (S)—N-(6-amino-1-(3-ethyl-2,4-dioxoimidazolidin-1-yl)hexan-2-yl)tetradecanamide]: the MIC was found to be 6.25 µg/mL in [2] (setting [9]); 6.25 µg/mL in data set [3]; 6.25 µg/mL in data set [4]; 3.12 µg/mL in the data set with E. coli (ATCC 25922); 12.5 µg/mL in data set [5]; 6.25 µg/mL in [6]. Also, the “MIC (μg/mL) P.A.” value in [5] was 12.5 µg/mL. Also, the “HC50” value in data set [7] (setting [10]) came out at 90 µg/mL. Moreover, the “antimicrobial activity across the tested bacterial strains” value in [8] is recorded as “comparable activity to nitrofurantoin against most strains”.
`CCCCCCCCCC(=O)N[C@@H](CCCCN)CN1CC(=O)N(c2ccc(OC)cc2)C1=O` [Compound 17, (S)—N-(6-amino-1-(3-(4-methoxyphenyl)-2,4-dioxoimidazolidin-1-yl)hexan-2-yl)decanamide]: the MIC (in data set [2] (setting [9]); in [3]; in data set [4]; in the data set on E. coli (ATCC 25922); in data set [5]; in data set [6]) was > 50 µg/mL each time. Moreover, the “antibacterial activity of compounds” value in data set [8] is “no apparent antibacterial activity”.
As for `CCCCCCCCCC(=O)N[C@@H](CCCCN)CN1CC(=O)N(C23CC4CC(CC(C4)C2)C3)C1=O` [Compound 13, N—((S)-1-(3-((3R,5R,7R)-adamantan-1-yl)-2,4-dioxoimidazolidin-1-yl)-6-aminohexan-2-yl) decanamide], the “MIC (μg/mL) MRSA” value in data set [2] (setting [11]) amounted to 6.25 µg/mL. In [2] (Table 2), the “MIC of MRSA” value was 6.25 µg/mL. Besides, in [3], the “MIC (μg/mL) MRSE” value stood at 6.25 µg/mL. In addition, in [4], the “MIC (μg/mL) VREF” value was determined as 12.5 µg/mL. The “MIC (μg/mL) E. coli” value with E. coli (ATCC 25922) turned out to be 6.25 µg/mL. Besides, the “MIC (μg/mL) P.A.” value in data set [5] amounted to 12.5 µg/mL. Moreover, the “MIC (μg/mL) K.P.” value in data set [6] stood at 6.25 µg/mL. In addition, the “HC50” value in data set [7] came to 125 µg/mL. The “antimicrobial activity across the tested bacterial strains” value in data set [8] is recorded as “exhibits decent activity across the panel of bacteria”.
For `O=C1CN(/N=C/c2ccc([N+](=O)[O-])o2)C(=O)N1` [Compound 26, nitrofurantoin, reference compound], the MIC is 12.5 µg/mL in data set [2] (setting [9]); 6.25 µg/mL in [3]; 12.5 µg/mL in data set [4]; 6.25 µg/mL with E. coli (ATCC 25922); > 50 µg/mL in data set [5]; 25 µg/mL in [6]. The MIC in data set [8] (range over most strains of the panel, read-out: MICs against most of bacteria) was in the range of 6.25 to 25 µg/mL.
